Key:
[1] = test system: two-spotted mite (Tetranychus urticae Koch); assay: Mite foliage spray test; format: in vivo; parameters: key: A: Excellent control; B: Partial control; C: No control; conditions: 500 ppm, six days
Experimental: (§1) Suspensions of the test compounds were prepared by dissolving one gram of compound in 50 milliliters of acetone in which had been dissolved 0.1 gram (10 percent of the weight of compound) of an alkylphenoxy polyethoxyethanol surfactant, as an emulsifying or dispersing agent. The resulting solution was mixed into 150 milliliters of water to give roughly 200 milliliters of a suspension containing the compound in finely divided form. The thus-prepared stock suspension contained 0.5 percent by weight of test compound. The test concentrations in parts per million by weight employed in the tests described hereinbelow were obtained by appropriate dilutions of the stock suspension with water. The test procedures were as follows:
Adults and nymphal stages of the two-spotted mite (Tetranychus urticae Koch), reared on Tendergreen bean plants at 80±5 percent relative humidity, were the test organisms. Infested leaves from a stock culture were placed on the primary leaves of two bean plants six to eight inches in height, growing in a two- and-a-half inch clay pot. 150-200 mites, a sufficient number for testing, transferred from the excised leaves to the fresh plants in a period of twenty-four hours. Following the twenty-four hour transfer period, the excised leaves were removed from the infested plants. The test compounds were formulated by diluting the stock suspension with water to give a suspension with water to give a suspension containing 500 parts of test compound per million parts of final formulation. The potted plants (one pot per compound) were placed on a revolving turntable and sprayed with 100-110 milliliters of test compound formulation by use of a DeVilbiss spray gun set at 40 psig. air pressure. This application, which lasted for 25 seconds was sufficient to wet the plants to run-off. As a control, 100-110 milliliters of a water solution containing acetone and emulsifier in the same concentrations as the test compound formulation, but containing no test compound, were also sprayed on infested plants. The sprayed plants were held at 80±5 percent relative humidity for six days, after which a mortality count of motile forms was made. Microscopic examination for motile forms was made on the leaves of the test plants. Any individual which was capable of locomotion upon prodding, was considered living.
(§2) In these test the pesticidal activity of the compounds against aphid, mite, Southern Armyworm, Mexican Bean Beetle, and house fly was rated as follows: […]

[2] = test system: house flies (Musca domestica, L.); assay: Fly bait test; format: in vivo; parameters: key: A: Excellent control; B: Partial control; C: No control; conditions: 500 ppm, bait in 10 percent sugar solution, twenty four hours
Experimental: as §1
Four to six day old adult house flies (Musca domestica, L.) reared according to the specifications of the Chemical Specialties Manufacturing Association (Blue Book, McNair-Dorland Co., NY., 1954; pages 243-244, 261) under controlled conditions of 80°±5° F. and 50±5 percent relative humidity, were the test insects. The flies were immobilized by anesthetizing with carbon dioxide and twenty five immobilized individuals, males and females, were transferred to a cage consisting of a standard food strainer about five inches in diameter which was inverted over a wrapping-paper-covered surface. The test compounds were formulated by diluting the stock suspension with a 10 percent (by weight) sugar solution to give a suspension containing 500 parts of test compound per million parts of final formulation, by weight. Ten milliliters of the test formulation were added to a souffle cup containing a one inch square of an absorbent cotton pad. This bait cup was introduced and centered on the blotting paper under the food strainer prior to admitting the anesthetized flies. The caged flies were allowed to feed on the bait for twenty four hours, at a temperature of 80°±5° F. and the relative humidity of 50±5 percent.
as §2

[3] = test system: bean aphid (Aphis fabae Scop.); assay: Bean aphid foliage spray test; format: in vivo; parameters: key: A: Excellent control; B: Partial control; C: No control; conditions: 500 ppm, 24 hour
Experimental: as §1
Adults and nymphal stages of the bean aphid (Aphis fabae Scop.) reared on potted dwarf nasturtium plants at 65°-70° F. and 50-70 percent relative humidity, constituted the test insects. For testing purposes, the number of aphids per pot was standardized to 100-150 by trimming plants containing excess aphids.
The test compounds were formulated by diluting the stock suspension with water to give a suspension containing 500 parts of test compound per million parts of final formulation.
The potted plants (one pot per compound tested) infested with 100-150 aphids, were placed on a revolving turntable and sprayed with 100-110 milliliters of test compound formulation by use of a DeVilbiss spray gun set at 40 psig. air pressure. This application, which lasted 25 seconds, was sufficient to wet the plants to run-off. As a control, 100-110 milliliters of a water-acetone-emulsifier solution containing no test compound were also sprayed on infested plants. After spraying, the pots were placed on their sides on a sheet of white standard mimeograph paper which had been previously ruled to facilitate counting. Temperature and humidity in the test room during the 24 hour holding period were 65°-70° F. and 50-70 percent, respectively. Aphids which fell onto the paper and were unable to remain standing after being uprighted were considered dead. Aphids remaining on the plants were observed closely for movement and those which were unable to move the length of the body upon stimulator by prodding were considered dead. Percent mortality was recorded for various concentration levels.
as §2

[4] = test system: Soybean; assay: Phytotoxicity test, soybean; format: in vivo; parameters: key: 1: no perceptible injury; 2: intermediate degrees of injury based upon the number and extent to which leaves were injured; 3: intermediate degrees of injury based upon the number and extent to which leaves were injured; 4: intermediate degrees of injury based upon the number and extent to which leaves were injured; 5: the plant was dead; conditions: 2500 ppm spray, after ten days
Experimental: as §1
(§3) Experiments were also conducted to determine the phytotoxicity of representative compositions with respect to healthy fresh plants. Solutions of the compounds were prepared as described above to provide a concentration of 2500 parts per million of the test compound. The test plants were sprayed in accordance with the procedure described above for the Mite Foliage Spray Test so as to deliver approximately 100 milliliters of test solution to the leaves of each plant tested. The sprayed plants and controls were set aside for approximately one hour to allow the solutions to dry and were then placed in the greenhouse. After ten days the plants were visually inspected to determine the extent of foliage injury. A rating of 1 indicates no perceptible injury; 5 indicates the plant was dead and ratings of 2, 3 and 4 indicate intermediate degrees of injury based upon the number and extent to which leaves were injured.

[5] = test system: Mexican bean beetle (Epilachna varivestis, Muls.); assay: Mexican bean beetle leaf spray test; format: in vivo; parameters: key: A: Excellent control; B: Partial control; C: No control; conditions: 500 ppm, three days
Experimental: as §1
Fourth instar larvae of the Mexican bean beetle (Epilachna varivestis, Muls.) reared on Tendergreen bean plants at a temperature of 80°±5° and 50±5 percent relative humidity, were the test insects.
The test compounds were formulated by diluting the stock suspension with water to give a suspension containing 500 parts of test compound per million parts of final formulation. Potted Tendergreen bean plants of standard height and age were placed on a revolving turntable and sprayed with 100-110 milliliters of test compound formulation by use of a DeVilbiss spray gun set at 10 psig air pressure. This application, which lasted 25 seconds was sufficient to wet plants to run-off. As a control, 100-110 milliliters of a water-acetone-emulsifier solution containing no test compound were also sprayed on infested plants. When dry, the paired leaves were separated and each was placed in a 9 centimeter Petri dish lined with moistened filter paper. Five randomly selected larvae were introduced into each dish, and the dishes were closed. The closed dishes were labeled and held at a temperature of 80°±5° F. for three days. Although the larvae could easily consume the leaf within 24 to 48 hours, no more food was added. Larvae which were unable to move the length of the body, even upon stimulation, were considered dead.
as §2

[6] = Water solubility (Table I); format: physicochemical; conditions: 25° C.
[7] = test system: Bean; assay: Phytotoxicity test, bean; format: in vivo; parameters: key: 1: no perceptible injury; 2: intermediate degrees of injury based upon the number and extent to which leaves were injured; 3: intermediate degrees of injury based upon the number and extent to which leaves were injured; 4: intermediate degrees of injury based upon the number and extent to which leaves were injured; 5: the plant was dead; conditions: 2500 ppm spray, after ten days
Experimental: as §1, §3

[8] = test system: Corn; assay: Phytotoxicity test, corn; format: in vivo; parameters: key: 1: no perceptible injury; 2: intermediate degrees of injury based upon the number and extent to which leaves were injured; 3: intermediate degrees of injury based upon the number and extent to which leaves were injured; 4: intermediate degrees of injury based upon the number and extent to which leaves were injured; 5: the plant was dead; conditions: 2500 ppm spray, after ten days
Experimental: as §1, §3

[9] = test system: Cotton; assay: Phytotoxicity test, cotton; format: in vivo; parameters: key: 1: no perceptible injury; 2: intermediate degrees of injury based upon the number and extent to which leaves were injured; 3: intermediate degrees of injury based upon the number and extent to which leaves were injured; 4: intermediate degrees of injury based upon the number and extent to which leaves were injured; 5: the plant was dead; conditions: 2500 ppm spray, after ten days
Experimental: as §1, §3

[10] = test system: Tomato; assay: Phytotoxicity test, tomato; format: in vivo; parameters: key: 1: no perceptible injury; 2: intermediate degrees of injury based upon the number and extent to which leaves were injured; 3: intermediate degrees of injury based upon the number and extent to which leaves were injured; 4: intermediate degrees of injury based upon the number and extent to which leaves were injured; 5: the plant was dead; conditions: 2500 ppm spray, after ten days
Experimental: as §1, §3

[11] = test system: southern armyworm (Prodenia Eridania, (Cram.)); assay: Southern armyworm leaf spray test; format: in vivo; parameters: key: A: Excellent control; B: Partial control; C: No control; conditions: 500 ppm, three days
Experimental: as §1
Larvae of the southern armyworm (Prodenia Eridania, (Cram.), reared on Tendergreen bean plants at a temperature of 80°±5° F. and relative humidity of 50±5 percent, constituted the test insects.
The test compounds were formulated by diluting the stock suspension with water to give a suspension containing 500 parts of test compound per million parts of final formulation. Potted Tendergreen bean plants of standard height and age were placed on a revolving turntable and sprayed with 100-110 milliliters of test compound formulation by use of a DeVilbiss spray gun set at 10 psig. air pressure.
This application which lasted 25 seconds was sufficient to wet plants to run-off. As a control, 100-110 milliliters of a water-acetone-emulsifier solution containing no test compound were also sprayed on infested plants. When dry, the paired leaves were separated and each one was placed in a 9 centimeter Petri dish lined with moistened filter paper. Five randomly selected larvae were introduced into each dish and the dishes were closed. The closed dishes were labeled and held at 80°-85° F. for three days. Although the larvae could easily consume the whole leaf within twenty-four hours, no more food was added. Larvae which were unable to move the length of the body, even upon stimulation by prodding, were considered dead. Percent mortality was recorded for various concentration levels.
as §2

SMILES | Pesticidal activity, Mite [1] | Pesticidal activity, Fly [2] | Pesticidal activity, Aphid [3] | POST-Emergent Herbicidal (phytotoxicity rating), Soybean [4] | Pesticidal activity, Mexican Bean Beetle [5] | solubility [6] [mg/mL] | POST-Emergent Herbicidal (phytotoxicity rating), Bean [7] | POST-Emergent Herbicidal (phytotoxicity rating), Corn [8] | POST-Emergent Herbicidal (phytotoxicity rating), Cotton [9] | POST-Emergent Herbicidal (phytotoxicity rating), Tomato [10] | Pesticidal activity, Southern Armyworm [11]
CN(C(=O)C[N+](C)(C)C)C(=O)Oc1cccc2c1OC(C)(C)C2 | C | A | A | 2 | A | 570 | 1 | 1 | 2 | 2 | A
CN(C(=O)C[n+]1ccn(C)c1)C(=O)Oc1cccc2c1OC(C)(C)C2 | A | A | A | 2 | A | 370 | 2 | 1 | 1 | 1 | A
CN(C(=O)C[n+]1ccc(N(C)C)cc1)C(=O)Oc1cccc2c1OC(C)(C)C2 | A | A | A | 2 | A | 160 | 2 | 1 | 1 | 1 | A
CN(C(=O)C[N+]1(C)CCCC1)C(=O)Oc1cccc2c1OC(C)(C)C2 | A | A | A | 2 | A | 490 | 2 | 1 | 2 | 1 | A
CN(C(=O)C[N+]1(C)CCOCC1)C(=O)Oc1cccc2c1OC(C)(C)C2 | B | A | A |  | A | 140 |  |  |  |  | A
CCCCCCCCCCCCCCCCCC[N+](C)(C)CC(=O)N(C)C(=O)Oc1cccc2c1OC(C)(C)C2 | C | A | B | 2 | A | > 250 | 2 | 2 | 2 | 1 | A
CCCCCCCCCCCC[N+](C)(C)CC(=O)N(C)C(=O)Oc1cccc2c1OC(C)(C)C2 | A | A | A | 2 | A | > 250 | 2 | 2 | 2 | 2 | A

From patent US4201786A, “Water soluble pesticidal quaternary ammonium salt compounds” (Union Carbide Corporation, priority 1977, dated 1980)
